{
  "source": "ChEMBL document CHEMBL5465560",
  "about": "“Selectivity Literature for EUbOPEN Chemogenomic Library” (2024)",
  "key": {"[1]": {"target": "Serine/threonine-protein kinase tousled-like 2 (Homo sapiens) (UniProt Q86UE8)", "sequence (Q86UE8 whole entry, looked up)": "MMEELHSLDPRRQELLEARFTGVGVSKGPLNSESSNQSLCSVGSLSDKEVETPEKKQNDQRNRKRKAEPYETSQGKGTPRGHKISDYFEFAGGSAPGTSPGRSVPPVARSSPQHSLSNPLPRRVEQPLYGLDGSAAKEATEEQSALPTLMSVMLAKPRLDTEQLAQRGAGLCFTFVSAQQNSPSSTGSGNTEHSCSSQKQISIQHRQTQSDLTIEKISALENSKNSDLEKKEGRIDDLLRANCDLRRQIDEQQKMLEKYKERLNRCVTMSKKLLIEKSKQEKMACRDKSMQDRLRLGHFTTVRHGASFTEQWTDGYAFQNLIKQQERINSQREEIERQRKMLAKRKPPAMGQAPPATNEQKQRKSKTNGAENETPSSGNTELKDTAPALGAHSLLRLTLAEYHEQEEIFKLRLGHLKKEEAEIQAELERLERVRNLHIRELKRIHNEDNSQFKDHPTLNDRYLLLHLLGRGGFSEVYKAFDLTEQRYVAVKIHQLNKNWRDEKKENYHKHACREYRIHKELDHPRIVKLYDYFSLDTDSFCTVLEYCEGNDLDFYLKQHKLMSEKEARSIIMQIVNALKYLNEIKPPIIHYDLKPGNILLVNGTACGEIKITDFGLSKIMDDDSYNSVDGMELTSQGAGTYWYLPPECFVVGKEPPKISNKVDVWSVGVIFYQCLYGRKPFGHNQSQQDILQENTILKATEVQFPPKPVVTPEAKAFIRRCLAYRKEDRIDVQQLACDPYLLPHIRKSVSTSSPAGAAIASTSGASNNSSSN", "assay": "Selectivity interaction (KinomeScan (DiscoverX)) EUB0001079a TLK2", "details": "at 1 µM"}, "[2]": {"target": "T1, SNF-related serine/threonine-protein kinase (Homo sapiens) (UniProt Q9NRH2)", "T1 sequence (whole entry)": "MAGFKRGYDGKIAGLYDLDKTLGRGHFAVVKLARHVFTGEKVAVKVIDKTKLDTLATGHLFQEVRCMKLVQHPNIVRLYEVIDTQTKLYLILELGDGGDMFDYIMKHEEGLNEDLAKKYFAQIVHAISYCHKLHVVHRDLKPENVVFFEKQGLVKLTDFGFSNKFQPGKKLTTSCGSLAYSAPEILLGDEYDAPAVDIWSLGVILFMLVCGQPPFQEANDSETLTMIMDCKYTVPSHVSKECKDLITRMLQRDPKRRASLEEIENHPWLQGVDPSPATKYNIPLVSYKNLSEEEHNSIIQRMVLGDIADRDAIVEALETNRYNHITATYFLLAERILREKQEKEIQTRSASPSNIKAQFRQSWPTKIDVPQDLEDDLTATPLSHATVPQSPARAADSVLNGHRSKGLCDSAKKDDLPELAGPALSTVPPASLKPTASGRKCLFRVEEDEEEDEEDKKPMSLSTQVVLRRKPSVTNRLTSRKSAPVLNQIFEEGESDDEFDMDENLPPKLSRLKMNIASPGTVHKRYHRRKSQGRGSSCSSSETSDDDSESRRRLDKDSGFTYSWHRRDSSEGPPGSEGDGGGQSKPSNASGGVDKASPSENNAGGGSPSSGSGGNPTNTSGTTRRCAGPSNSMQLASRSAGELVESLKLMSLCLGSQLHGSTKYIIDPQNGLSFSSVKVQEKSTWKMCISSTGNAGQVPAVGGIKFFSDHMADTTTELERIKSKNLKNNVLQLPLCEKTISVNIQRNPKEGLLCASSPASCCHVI", "assay": "Selectivity interaction (KinomeScan (DiscoverX)) EUB0001049a SNRK", "details": "at 1 µM"}, "[3]": {"target": "T2, Protein kinase C iota type (Homo sapiens) (UniProt P41743)", "T2 sequence (whole entry)": "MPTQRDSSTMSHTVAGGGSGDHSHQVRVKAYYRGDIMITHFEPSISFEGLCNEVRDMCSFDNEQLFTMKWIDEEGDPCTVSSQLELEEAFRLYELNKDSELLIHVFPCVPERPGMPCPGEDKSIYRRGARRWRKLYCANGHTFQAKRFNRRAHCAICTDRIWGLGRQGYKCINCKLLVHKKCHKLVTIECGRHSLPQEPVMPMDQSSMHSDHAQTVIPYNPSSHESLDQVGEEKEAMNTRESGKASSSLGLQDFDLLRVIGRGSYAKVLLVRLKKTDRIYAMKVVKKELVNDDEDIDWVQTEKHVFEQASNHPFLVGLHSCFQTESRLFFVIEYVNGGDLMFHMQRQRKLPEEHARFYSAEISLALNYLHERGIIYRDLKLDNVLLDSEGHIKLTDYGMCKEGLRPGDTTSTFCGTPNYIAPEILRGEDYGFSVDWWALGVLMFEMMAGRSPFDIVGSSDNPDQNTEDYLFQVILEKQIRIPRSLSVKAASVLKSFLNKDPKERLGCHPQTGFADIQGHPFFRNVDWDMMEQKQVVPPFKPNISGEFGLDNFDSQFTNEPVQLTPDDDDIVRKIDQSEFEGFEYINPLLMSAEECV", "assay": "Selectivity interaction (Upstate Kinase Profiler service (Millipore)) EUB0000056c PRKCI", "details": "at 1 µM"}, "[4]": {"target": "T3, Receptor-interacting serine/threonine-protein kinase 1 (Homo sapiens) (UniProt Q13546)", "T3 sequence (whole entry)": "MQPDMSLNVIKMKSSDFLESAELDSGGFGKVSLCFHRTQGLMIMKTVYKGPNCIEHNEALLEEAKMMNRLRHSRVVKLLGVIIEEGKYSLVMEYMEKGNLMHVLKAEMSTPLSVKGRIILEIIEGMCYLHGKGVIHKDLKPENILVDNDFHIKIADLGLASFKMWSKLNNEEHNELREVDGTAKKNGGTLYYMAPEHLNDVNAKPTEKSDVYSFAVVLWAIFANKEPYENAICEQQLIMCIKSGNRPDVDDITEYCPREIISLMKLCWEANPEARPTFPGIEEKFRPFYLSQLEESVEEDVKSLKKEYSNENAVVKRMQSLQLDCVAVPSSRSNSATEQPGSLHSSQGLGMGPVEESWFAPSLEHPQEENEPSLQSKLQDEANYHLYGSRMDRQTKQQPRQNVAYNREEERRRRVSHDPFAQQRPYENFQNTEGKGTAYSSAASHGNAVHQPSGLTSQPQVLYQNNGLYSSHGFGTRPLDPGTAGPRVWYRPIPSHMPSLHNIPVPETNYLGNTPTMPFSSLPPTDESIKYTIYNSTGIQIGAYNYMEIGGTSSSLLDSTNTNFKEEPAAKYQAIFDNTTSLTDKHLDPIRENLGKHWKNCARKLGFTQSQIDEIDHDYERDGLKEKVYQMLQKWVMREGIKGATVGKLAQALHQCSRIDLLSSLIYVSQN", "assay": "Selectivity interaction (Kinase panel (Eurofins)) EUB0001564a RIPK1", "details": "at 1 µM"}, "[5]": {"target": "Mast/stem cell growth factor receptor Kit (Homo sapiens, UniProt P10721)", "sequence (P10721 whole entry)": "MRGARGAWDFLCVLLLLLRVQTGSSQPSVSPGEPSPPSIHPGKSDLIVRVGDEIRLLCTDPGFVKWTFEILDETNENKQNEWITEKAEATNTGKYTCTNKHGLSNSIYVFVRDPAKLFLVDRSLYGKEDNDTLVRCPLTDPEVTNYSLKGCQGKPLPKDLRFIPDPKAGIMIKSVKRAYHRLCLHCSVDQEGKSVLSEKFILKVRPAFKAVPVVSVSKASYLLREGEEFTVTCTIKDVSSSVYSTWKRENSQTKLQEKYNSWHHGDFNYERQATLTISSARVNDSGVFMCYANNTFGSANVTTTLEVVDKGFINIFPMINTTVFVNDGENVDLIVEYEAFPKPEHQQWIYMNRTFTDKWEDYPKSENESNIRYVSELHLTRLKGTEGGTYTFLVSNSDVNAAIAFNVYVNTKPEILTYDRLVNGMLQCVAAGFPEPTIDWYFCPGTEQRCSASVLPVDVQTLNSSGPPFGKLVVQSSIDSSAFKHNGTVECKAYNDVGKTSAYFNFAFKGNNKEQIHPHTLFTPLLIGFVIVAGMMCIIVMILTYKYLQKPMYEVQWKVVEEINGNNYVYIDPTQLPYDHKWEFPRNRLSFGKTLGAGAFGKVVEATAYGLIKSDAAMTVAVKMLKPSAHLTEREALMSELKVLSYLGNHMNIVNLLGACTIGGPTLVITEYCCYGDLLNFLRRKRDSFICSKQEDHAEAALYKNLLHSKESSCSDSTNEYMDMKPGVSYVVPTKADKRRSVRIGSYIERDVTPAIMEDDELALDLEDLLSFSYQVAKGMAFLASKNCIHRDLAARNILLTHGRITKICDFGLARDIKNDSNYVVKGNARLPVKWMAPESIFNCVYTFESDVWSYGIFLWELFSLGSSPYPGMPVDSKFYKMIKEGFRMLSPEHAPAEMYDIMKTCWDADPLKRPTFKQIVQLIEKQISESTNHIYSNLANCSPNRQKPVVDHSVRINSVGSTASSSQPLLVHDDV", "assay": "(§1) Selectivity interaction (SelectScreen profiling (Invitrogen)) EUB0000607a KIT", "details": "at 2 µM"}, "[6]": {"test_system": "Mast/stem cell growth factor receptor Kit (Homo sapiens), P10721 [T670I]", "sequence (P10721 whole entry T670I)": "as the sequence (P10721 whole entry) above, with T670I counted along it", "assay": "as §1", "details": "at 2 µM"}, "[7]": {"target": "Serine/threonine-protein kinase tousled-like 2 (Homo sapiens) (UniProt Q86UE8)", "assay": "Selectivity interaction (KinomeScan (DiscoverX)) EUB0000655a TLK2", "details": "at 10 µM"}, "[8]": {"test_system": "Proto-oncogene tyrosine-protein kinase receptor Ret (Homo sapiens), P07949 [M918T]", "sequence (P07949 whole entry M918T)": "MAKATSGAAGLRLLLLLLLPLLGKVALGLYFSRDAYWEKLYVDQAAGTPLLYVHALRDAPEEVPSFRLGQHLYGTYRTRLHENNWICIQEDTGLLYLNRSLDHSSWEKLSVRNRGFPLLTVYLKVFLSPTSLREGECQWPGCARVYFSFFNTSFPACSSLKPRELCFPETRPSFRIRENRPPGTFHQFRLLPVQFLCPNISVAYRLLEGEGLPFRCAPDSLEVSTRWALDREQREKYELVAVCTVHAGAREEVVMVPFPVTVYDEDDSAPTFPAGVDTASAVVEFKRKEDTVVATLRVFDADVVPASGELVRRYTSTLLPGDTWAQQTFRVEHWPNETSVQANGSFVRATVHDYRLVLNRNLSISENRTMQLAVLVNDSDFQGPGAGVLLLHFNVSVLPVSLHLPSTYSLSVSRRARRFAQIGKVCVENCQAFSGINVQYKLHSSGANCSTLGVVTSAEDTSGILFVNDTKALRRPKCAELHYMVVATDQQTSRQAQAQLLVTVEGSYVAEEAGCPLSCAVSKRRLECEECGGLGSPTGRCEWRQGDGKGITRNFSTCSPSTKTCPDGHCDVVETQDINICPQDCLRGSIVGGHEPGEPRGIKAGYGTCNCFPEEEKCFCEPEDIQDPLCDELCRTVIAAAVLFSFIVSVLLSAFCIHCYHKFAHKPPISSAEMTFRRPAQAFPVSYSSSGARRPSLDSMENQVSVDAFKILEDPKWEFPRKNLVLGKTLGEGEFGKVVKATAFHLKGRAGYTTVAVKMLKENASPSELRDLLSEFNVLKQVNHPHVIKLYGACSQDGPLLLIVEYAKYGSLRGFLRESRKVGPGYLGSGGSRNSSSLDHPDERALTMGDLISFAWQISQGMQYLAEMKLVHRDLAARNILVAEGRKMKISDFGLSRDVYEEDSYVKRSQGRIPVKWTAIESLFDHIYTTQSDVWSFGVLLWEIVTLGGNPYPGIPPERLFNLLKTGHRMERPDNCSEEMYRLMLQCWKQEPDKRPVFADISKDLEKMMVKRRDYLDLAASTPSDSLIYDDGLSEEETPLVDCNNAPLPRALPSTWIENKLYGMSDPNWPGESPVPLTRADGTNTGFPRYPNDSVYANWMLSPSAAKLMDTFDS", "details": "at 10 µM"}},
  "data": [
    {"smiles": "Nc1cnc(N2CCc3cc(S(=O)(=O)Nc4c(F)cc(Cl)cc4F)cc(N4CCCC4=O)c32)nc1", "note": "[TP-020n]", "values": [
      {"measurement": "% of control", "setting": "[1]", "value": 79, "unit": "%"}
    ]},
    {"smiles": "COc1cc(Nc2nc(C)cc(-c3cnn4nc(OC)ccc34)n2)cc(C(F)(F)F)c1", "values": [
      {"measurement": "% of control", "setting": "[2]", "value": 100, "unit": "%"}
    ]},
    {"smiles": "Cc1ccc(-c2ccc3c(ccc4sc5c(c43)NC[C@@H](C)NC5=O)n2)cn1", "values": [
      {"measurement": "% of inhibition", "setting": "[3]", "value": -10, "unit": "%"}
    ]},
    {"smiles": "CC[C@@H](Nc1c(C#N)c(-c2ccc(-c3cccc(C)c3F)cc2)nc2cnccc12)C(=O)O", "note": "[BAY-091]", "values": [
      {"measurement": "% of inhibition", "setting": "[4]", "value": 21.2, "unit": "%"}
    ]},
    {"smiles": "CNC(=O)Nc1ccc(-c2nc(N3CC4CCC(C3)O4)c3cnn(C4CCC5(CC4)OCCO5)c3n2)cc1", "values": [
      {"measurement": "% of inhibition", "setting": "[5]", "value": 10, "unit": "%"},
      {"measurement": "% of inhibition", "setting": "[6]", "value": 7, "unit": "%"}
    ]},
    {"smiles": "CN(C)CCOc1ccc(-c2nc(-c3ccncc3)c(-c3ccc4c(c3)CC/C4=N\\O)[nH]2)cc1", "values": [
      {"measurement": "% of control", "setting": "[7]", "value": 86, "unit": "%"}
    ]},
    {"smiles": "CCN(CC)CCCCNc1ncc2cc(-c3cc(OC)cc(OC)c3)c(NC(=O)NC(C)(C)C)nc2n1", "values": [
      {"measurement": "% of control", "setting": "[8]", "value": 100, "unit": "%"}
    ]}
  ]
}
